From patent publication US5747517A, “Benzylidene rhodanines” (Eli Lilly and Company, priority 1996, dated 1998)

Tests used:
cathepsin D = biological target: T1, cathepsin D (Homo sapiens, UniProt P07339); assay: Cathepsin D Inhibition Assay (non-cellular); format: biochemical
T1 construct: Human brain cathepsin D was purified from frozen post-mortem cortex; from tissue; host or cells: human tissue: brain cortex (Assay 1), liver (Assay 2, bought from Athens Research and Technology) or placenta (Assay 3); the results are not tied to one of them
Excerpt: First, test compounds which inhibit exemplary aspartyl proteases, particularly cathepsin D, are identified as aspartyl protease inhibitors. As used herein, the term "test system" refers to an assay that is designed to measure aspartyl protease inhibitory activity. A typical test system used for such identification is a non-cellular assay where turnover of the protease substrate is monitored upon the administering of a protease inhibitor. The turnover of the protease […] is then compared to the turnover of substrate in a control test system in which no such aspartyl protease inhibitor has been administered. As used herein, the term "control test system" refers to an identical test system that is run side-by-side with the test system with the exception no aspartyl protease inhibitor is administered. This non-cellular assay is used to identify those test compounds having suitable aspartyl protease inhibitory activity in a non-cellular environment. An example of a non-cellular assay that may be used to determine in vitro aspartyl protease inhibitory activity reacts partially purified human brain cathepsin D with a substrate, e.g., porcine renin tetradecapeptide. The resultant reaction mixture is divided into portions and each portion is incubated for a different period of time. After the reaction is stopped, the turnover of substrate in each portion is determined using reverse-phase high performance liquid chromatography (HPLC). Protease inhibition activity may be calculated based on the rates of substrate turnover. This assay is exemplified in Assay 1, below. A second non-cellular assay for determining in vitro aspartyl protease inhibitory activity utilizes a microtiter plate, where a suitable aspartyl protease, such as a cathepsin D is added to each well together with controls. A suitable fluorometric substrate is added to each well. The resultant reaction mixture is allowed to react for a preselected time, e.g., 30 minutes. After enzyme activity is terminated, the substrate or its product may be determined fluorometrically and then the protease inhibition activity may be calculated based on the rates of substrate turnover. This assay is exemplified in Assay 2, below. CATHEPSIN D INHIBITION ACTIVITY (NON-CELLULAR ASSAY) Human brain cathepsin D was purified from frozen post-mortem cortex substantially in accordance with the method of Nixon and Morotta, (1984) J. Neurochem. 43:507-516. The cortex material was prepared and applied to a DEAE-Sepharose® column. The flow through fraction was dialyzed against 50 mM Tris-HCl, pH 7.5, and applied to concanavalin A Sepharose® and eluted with 50 mM Tris, pH 7.5, 0.5M methyl α-D-mannopyranoside. The eluted cathepsin D activity was dialyzed against 25 mM Tris, pH 7.5, and stored at -40° C. (Con A pool) until use. […] The substrate, a porcine renin tetradecapeptide,was added to each reaction mixture to yield a final concentration of 44 μM in a total volume of 300 μl. The samples were incubated at 37° C. for 0, 10, 20, or 30 minutes, and then boiled for 5 minutes to stop the reaction. The samples were centrifuged in a microcentrifuge for 10 minutes at 14,000 rpm at 4° C. After centrifugation, 200 μL of each reaction was injected onto a C18 reverse phase liquid chromatography column (Vydac, Hesperia, Calif.) with a Perkin Elmer ISS 100 autosampler and eluted with a gradient of 0-50% CH3 CN in 0.1% CF3 CO2 H at 2 ml/min. Peptide product peaks were monitored at 220 nm with a Perkin Elmer LC 95 detector and integrated with Rainin Dynamax software in order to quantitate activity. CATHEPSIN D INHIBITION ACTIVITY (NON-CELLULAR FLUOROMETIC ASSAY) A fluorometric assay was adapted from the method disclosed by Murakami et al., (1981) Anal. Biochem. 110:232-239 for measuring renin activity. […] Compound stocks were prepared by dissolving an aspartyl protease inhibitor in DMSO for each concentration tested in the assay and then 5 μL of compound stock was added to each of the wells prepared above. […]

[1] = tested on: β-amyloid peptide production in 293 751 SWE and CHO 751 SWE cells; assay: β-Amyloid Peptide Production Inhibition Activity In Cells (cellular assay, ELISA normalised to MTT); format: cell-based
Protocol: β-AMYLOID PEPTIDE […] (CELLULAR ASSAY)
Two cell lines (human kidney cell line 293 and Chinese hamster ovary cell line CHO) were stably transfected with the gene for APP751 containing the double mutation Lys651 -Met652 to Asn651 -Leu652 (APP-751 numbering) commonly called the Swedish mutation using the method described in Citron, et al., Nature 360:672-674 (1992). The transfected cell lines were designated as 293 751 SWE and CHO 751 SWE, and were plated in Corning 96 well plates at 2.5×10^4 or 1×10^4 cells per well respectively in Dulbecco's minimal essential media (DMEM) plus 10% fetal bovine serum. Following overnight incubation at 37° C. in an incubator equilibrated with 10% carbon dioxide (CO2), the media were removed and replaced with 200 μl per well of media containing an aspartyl protease inhibitor. After a two hour pretreatment period, the media were again removed and replaced with fresh media containing the aspartyl protease inhibitor and the cells were incubated for an additional two hours.
After treatment, plates were centrifuged at 1200 rpm for five minutes at room temperature to pellet cellular debris from the conditioned media. From each well, 100 μl of conditioned media were transferred into an ELISA plate precoated with antibody 266 against β-amyloid peptide(13-28) (Seubert et al., supra. ) and stored at 4° C. overnight. An ELISA assay employing labelled antibody 6C6 (against β-amyloid peptide-1-16) was run the next day to measure the amount of β-amyloid peptide produced.
Cytotoxic effects of the compounds were measured by a modification of the method of Hansen et al., (1989) J. Immun. Meth. 119:203-210. To the cells remaining in the tissue culture plate, was added 25 μl of a 3-(4,5-dimethylthiazol-2-yl)2,5-diphenyltetrazolium bromide (MTT) stock solution (5 mg/ml) to a final concentration of […]. Cells were incubated at 37° C. for one hour, and cellular activity was stopped by the addition of an equal volume of MTT lysis buffer (20% w/v sodium dodecylsulfate in 50% DMF, pH 4.7). Complete extraction was achieved by overnight shaking at room temperature. The difference in the OD562nm and the OD650nm was measured in a Uvmax microplate reader as an indicator of the cellular viability.
The results of the β-amyloid peptide ELISA were fit to a standard curve and expressed as ng/ml β-amyloid peptide. In order to normalize for cytotoxicity, these β-amyloid peptide results were divided by the MTT results and expressed as a percentage of the results from a drug-free control.

T1 sequence (P07339 169-412 limits assumed): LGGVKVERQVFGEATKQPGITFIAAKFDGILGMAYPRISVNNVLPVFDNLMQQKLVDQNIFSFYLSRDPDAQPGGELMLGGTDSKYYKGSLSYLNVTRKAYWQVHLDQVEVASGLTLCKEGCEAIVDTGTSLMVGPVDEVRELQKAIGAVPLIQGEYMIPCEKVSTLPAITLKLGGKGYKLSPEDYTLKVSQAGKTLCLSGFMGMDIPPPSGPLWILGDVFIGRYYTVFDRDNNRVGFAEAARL
T1 sequence (P07339 65-162 limits assumed): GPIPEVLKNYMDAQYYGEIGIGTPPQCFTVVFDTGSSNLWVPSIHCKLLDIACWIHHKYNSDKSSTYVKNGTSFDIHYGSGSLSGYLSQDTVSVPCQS

CCCc1c(COc2ccc(C=C3SC(=S)NC3=O)cc2)ccc(C(C)=O)c1O [Example 1, 5-[[4-[(4-acetyl-3-hydroxy-2-propylphenyl)methoxy]phenyl]methylene]-2-thioxo-4-thiazolidinone]
inhibition at 0.31 µg/mL (cathepsin D; 0.31 μg/ml, read-out: Percent Inhibition (cathepsin D)): 4%
inhibition at 0.62 µg/mL (cathepsin D; 0.62 μg/ml, read-out: Percent Inhibition (cathepsin D)): 0%
inhibition at 1.25 µg/mL (cathepsin D; 1.25 μg/ml, read-out: Percent Inhibition (cathepsin D)): 15%
inhibition at 2.5 µg/mL (cathepsin D; 2.50 μg/ml, read-out: Percent Inhibition (cathepsin D)): 15%
inhibition at 5 µg/mL (cathepsin D; 5.00 μg/ml, read-out: Percent Inhibition (cathepsin D)): 26%
Percent Inhibition (cathepsin D) (cathepsin D; 10.0 μg/ml): 45%
inhibition at 10 µg/mL (cathepsin D; 10.0 μg/ml, read-out: Percent Inhibition (cathepsin D)): 60%
inhibition at 0.31 µg/mL ([1]; 0.31 μg/ml, read-out: Percent Inhibition (β-amyloid peptide production)): 4%
inhibition at 0.62 µg/mL ([1]; 0.62 μg/ml, read-out: Percent Inhibition (β-amyloid peptide production)): 0%
inhibition at 1.25 µg/mL ([1]; 1.25 μg/ml, read-out: Percent Inhibition (β-amyloid peptide production)): 15%
inhibition at 2.5 µg/mL ([1]; 2.50 μg/ml, read-out: Percent Inhibition (β-amyloid peptide production)): 15%
inhibition at 5 µg/mL ([1]; 5.00 μg/ml, read-out: Percent Inhibition (β-amyloid peptide production)): 26%
Percent Inhibition (β-amyloid peptide production) ([1]; 10.0 μg/ml): 45%
inhibition at 10 µg/mL ([1]; 10.0 μg/ml, read-out: Percent Inhibition (β-amyloid peptide production)): 60%
